Source: patent publication US20070219224A1, “Compositions and Methods Relating to Pyrimidine Synthesis Inhibitors” (UAB RESEARCH FOUNDATION, THE, priority 2004, published 2007)
Entries after “also recorded” stand apart in the source; their conditions may differ.

Key:
RSV-infected BALB/c mice [1] = assay: Alveolar fluid clearance (AFC) in RSV-infected mice at day 2 p.i.; assay type: in vivo; parameters: effect of uridine in the AFC instillate on the A77-1726 effect on AFC: dose or concentration left out as unconfirmed; conditions: for effect on RSV-mediated inhibition of AFC at day 2 p.i. (in words): added to the AFC instillate; for AFC (mean % AFC ± SE): d2
Procedure: Preparation of viral inocula and infection of mice. […] J. Physiol. Lung Cell Mol. Physiol. […] Data for each experimental group was derived from a minimum of 2 independent infections.
(§1) Systemic inhibition of de novo pyrimidine and purine synthesis. Leflunomide (5-methylisoxazole-4-[4-trifluoromethyl]carboxanilide, 35 mg/kg in distilled water containing 1% methylcellulose) was administered once daily by oral gavage in a volume of 300 μl/mouse for 8 days prior to infection, then throughout the infection period. Vehicle controls were gavaged with an equivalent volume of 1% methylcellulose in distilled water.
To systemically block de novo pyrimidine synthesis, mice were gavaged once daily for 8 days with […] of the dihydro-orotate reductase (DHOR) inhibitor leflunomide ([…] suspended in 1% methylcellulose) or vehicle prior to infection, then at 0 and 24 hours p.i. AFC studies were performed at 48 hours p.i., with no additions to the AFC instillate.
(§2) AFC studies were performed on anesthetized, ventilated BALB/c mice with normal body temperature and blood gases, over a 30 minute period after intratracheal instillation of 0.3 ml of isosmolar NaCl containing 5% fatty acid-free BSA. The number of mice analyzed per group is listed in the relevant bar of each graph.

UTP/ATP content of BALF = assay: Measurement of nucleotides (UTP/ATP content) in BALF of RSV-infected mice; assay type: in vivo, BALB/c mice; conditions: d2
Procedure: (§3) Preparation of viral inocula and infection of mice. Preparation of viral stocks and intranasal infection of eight to twelve week-old pathogen-free BALB/c mice of either sex with RSV strain A2 (10^6 PFU in 100 μl) were performed as described in Davis et al., “Nucleotide-mediated inhibition of alveolar fluid clearance in BALB/c mice after respiratory syncytial virus infection,” Am. J. Physiol. Lung Cell Mol. Physiol. 286:L112-L120. (2004). Data for each experimental group was derived from a minimum of 2 independent infections.
(§4) Bronchoalveolar lavage. Bronchoalveolar lavage fluid (BALF) was collected as previously described in Davis et al., (2004), using 1 ml of sterile normal saline for cytokine ELISAs, or 0.3 ml of sterile saline for nucleotide assays. Lavagates were centrifuged to remove cells and supernatants stored at −80° C.
Measurement of nucleotides in BALF. Endogenous nucleotidases in BALF were heat denatured (100° C., 3 minutes) and UTP/ATP content measured using the […] and luciferine-luciferase assays, respectively.
as §1, with “water. […]” for “water.”

[2] = system: IFN-α, IL-1β, KC, TNF-α in BALF; assay: Measurement of proinflammatory cytokines in BALF (ELISA); assay type: in vivo, BALB/c mice; conditions: RSV-infected mice, d2; exception IFN-α
Procedure: as §3, §4
as §1, with “water. […].” for “water.”
Measurement of proinflammatory cytokines in BALF. Cytokine levels were determined using Quantikine M ELISA kits (R & D Systems), in accordance with manufacturer's instructions.

[3] = assay type: in vivo; conditions: RSV-infected mice, D1 and d2
Procedure: as §3
as §1, with “water. […]” for “water.”

RSV strain A2 = assay: RSV replication in mouse lungs; assay type: in vivo, Respiratory syncytial virus; conditions: RSV-infected mice, day 2 p.i.; systemic treatment
Procedure: as §3
as §1, with “water. […]” for “water.”

RSV-infected BALB/c mice [4] = assay: Lung water content (wet:dry weight ratio) after RSV infection; assay type: in vivo
Procedure: as §3
as §1, with “water. […]” for “water.”

uninfected BALB/c mice = assay: Alveolar fluid clearance (AFC) in uninfected or mock-infected mice; assay type: in vivo; conditions: uninfected mice; 50 μM in 100 μl normal saline intranasally 24 hours prior to AFC assay
Procedure: Systemic inhibition of de novo pyrimidine and purine synthesis. […] Vehicle controls were gavaged with an equivalent volume of 1% methylcellulose in distilled water. Uridine (1 g/kg in 0.9% NaCl) was administered by i.p. injection every 12 hours in a volume of 100 μl (8). […]
as §2

[5] = RSV-infected mice, day 2 p.i., final concentration 25 μM (Table 6)
[6] = RSV-infected mice, inhibitor 100 μM in AFC instillate (Table 5)

COc1c(C)c2c(c(O)c1C/C=C(\C)CCC(=O)O)C(=O)OC2 [MPA, mycophenolic acid]
AFC30BASAL (mean % basal AFC after 30 minutes ± SE) (RSV-infected BALB/c mice [1]; [5]): 26.2 ± 1.7 %
effect on RSV-mediated inhibition of AFC at day 2 p.i. (in words) (RSV-infected BALB/c mice [1]): only a minor effect
effect on RSV-mediated inhibition of AFC at day 2 p.i. (in words) (RSV-infected BALB/c mice [1]; listed as mycophenolic acid): not and only a small blocking effect

O=c1ccn([C@@H]2O[C@H](CO)[C@@H](O)[C@H]2O)c(=O)[nH]1 [Uridine]
effect of concomitant uridine on the leflunomide effect on BALF nucleotides (UTP/ATP content of BALF): reversed the effect of leflunomide on BALF UTP and ATP levels; also recorded: caused a significant increase in the BALF nucleotide content over that in untreated RSV-infected mice
effect of concomitant uridine on the leflunomide effect on BALF cytokines [2]: only partially reversed
effect of concomitant uridine on the leflunomide effect on weight loss [3]: did not prevent this effect
effect of uridine in the AFC instillate on the A77-1726 effect on AFC (RSV-infected BALB/c mice [1]; RSV-infected mice, day 2 p.i.): fully reversed; also recorded: blocked
AFC30BASAL (mean % basal AFC after 30 minutes ± SE) (RSV-infected BALB/c mice [1]; RSV-infected mice, day 2 p.i., leflunomide 5 mg/kg oral gavage once daily, uridine 1 mg/kg i.p. q12h): 22.89 ± 2.22%
effect of concomitant uridine on the leflunomide effect on AFC (RSV-infected BALB/c mice [1]; RSV-infected mice, day 2 p.i., uridine i.p. throughout the leflunomide treatment period): prevented; also recorded: reversed
effect on RSV-mediated inhibition of AFC at d2 (in words) (RSV-infected BALB/c mice [1]; systemic treatment (leflunomide oral gavage; uridine, 6-MP i.p.)): no effect on AFC
virus replication in lung tissue at d2 (RSV strain A2): no effect on virus replication; also recorded: unaffected
effect of concomitant uridine on the leflunomide effect on lung water content (RSV-infected BALB/c mice [4]; day 2 p.i.): reversed this effect; also recorded: prevented this effect

C/C(O)=C(\C#N)C(=O)Nc1ccc(C(F)(F)F)cc1 [A77-1726]
effect on RSV-induced inhibition of AFC, intranasal treatment (in words) (RSV-infected BALB/c mice [1]; 50 μM in 100 μl normal saline intranasally at 24 hours p.i.): completely blocked
AFC30BASAL (mean % basal AFC after 30 minutes ± SE) (RSV-infected BALB/c mice [1]; RSV day 2 p.i., 50 μM in 100 μl normal saline intranasally 24 hours after infection): 32.68 ± 1.1 %
AFC30BASAL (mean % basal AFC after 30 minutes ± SE) (RSV-infected BALB/c mice [1]; [5]): 34.06 ± 1.88 %
effect on RSV-mediated inhibition of AFC at day 2 p.i. (in words) (RSV-infected BALB/c mice [1]): prevented; also recorded: reverses RSV-mediated inhibition of AFC
AFC30BASAL (mean % basal AFC after 30 minutes ± SE) (uninfected BALB/c mice): 23.19 ± 5.95 %
lung wet:dry weight ratios, intranasal treatment (RSV-infected BALB/c mice [4]; A77-1726 intranasal): normalization of lung wet:dry weight ratios

CNCCC(Oc1ccc(C(F)(F)F)cc1)c1ccccc1 (centres unmarked) [Fluoxetine]
AFC (mean % AFC ± SE) (RSV-infected BALB/c mice [1]; RSV-infected mice, inhibitor 10 μM in AFC instillate (Table 5)): 34.54 ± 0.79 %
AFC30BASAL (mean % basal AFC after 30 minutes ± SE) (RSV-infected BALB/c mice [1]; RSV-infected mice, day 2 p.i., final concentration 10 μM (Table 6)): 34.54 ± 0.79 %
effect on RSV-mediated inhibition of AFC at day 2 p.i. (in words) (RSV-infected BALB/c mice [1]): blocked RSV-mediated inhibition of AFC

O=c1[nH]cnc2nc[nH]c12 [hypoxanthine]
effect of hypoxanthine in the AFC instillate on the MPA effect on AFC (RSV-infected BALB/c mice [1]; RSV-infected mice, day 2 p.i., 50 mM hypoxanthine as printed): fully reversed; also recorded: blocked

O=C(O)c1cc([N+](=O)[O-])ccc1NCCCc1ccccc1 [NPPB, 5-nitro-2-(3-phenylpropylamino) benzoic acid]
AFC (mean % AFC ± SE) (RSV-infected BALB/c mice [1]; [6]): 32.70 ± 2.18 %
AFC30BASAL (mean % basal AFC after 30 minutes ± SE) (RSV-infected BALB/c mice [1]; RSV-infected mice, day 2 p.i., final concentration 100 μM (Table 6)): 35.12 ± 1.94 %
effect on RSV-mediated inhibition of AFC at day 2 p.i. (in words) (RSV-infected BALB/c mice [1]): blocked

C[C@]1(C2CCCC2)Cc2cc(OCC(=O)O)c(Cl)c(Cl)c2C1=O [R(+)-IAA 94, R(+)-[(6,7-dichloro-2-cyclopentyl-2,3-dihydro-2-methyl-1-oxo-1H-inden-5yl)-oxy] acetic acid 94]
AFC (mean % AFC ± SE) (RSV-infected BALB/c mice [1]; [6]): 34.25 ± 1.98 %
effect on RSV-mediated inhibition of AFC at day 2 p.i. (in words) (RSV-infected BALB/c mice [1]): blocked

COc1ccc(Cl)cc1C(=O)NCCc1ccc(S(=O)(=O)NC(=O)NC2CCCCC2)cc1 [Glibenclamide]
AFC (mean % AFC ± SE) (RSV-infected BALB/c mice [1]; [6]): 24.24 ± 4.24%
effect on RSV-mediated inhibition of AFC at day 2 p.i. (in words) (RSV-infected BALB/c mice [1]): unaffected
